According to US20160296722A1, “METHOD OF TREATING DEPRESSION” (Korea Bio Medical Science Institute, priority 2015, published 2016):

What was measured:
ICR mice = test: Forced swimming test (FST), immobility time; format: in vivo; conditions: male ICR mice, mean±SEM
Experimental: Male ICR mice (3 weeks old) weighing 10-12 g were purchased from the Dae-Han Experimental Animal Center (Daejeon, Republic of Korea), and subsequently maintained at the College of Korean Medicine, Kyung Hee University. Animals were housed 5-10% in as laminar air-flow room maintained at a temperature of 22±1° C. and a relative humidity of 55±10% under a 12:12 L/D cycle light (on at 7:00 h) throughout the study. Food and water were provided ad libitum. All manipulations were carried out between 9:00 and 16:00 h and no animal was used more than once.
Mice were exposed to JDS music daily for 3 weeks. All experiments were carried out in a quite environment other sounds.
After measuring immobility times, 10 mice were allocated to each of the five study groups in an immobility time-matched manner. […] The FST was performed as the end of the 3 weeks administration period. During the 6 min FST, immobility times were measured as described by Porsolt et al. (1977). The FST apparatus consisted of two Plexiglas cylinders (height: 25 cm, diameter: 10 cm) placed side by side in a Makrolon cage filled with water at 23-25° C. […] Total duration of immobility, during the 4 min period from 2 to 6 min was recorded. […]

DA = DA level in brain after FST (DA ELISA kit); format: in vivo, mice; conditions: mouse brain after FST, 10 mg/kg orally once daily for 3 weeks, versus untreated control group, p<0.05
Experimental: Supernatants were collected and stored at −70° C.

BDNF = BDNF expression in brain, Western blot; format: in vivo, mice; conditions: mouse brain after FST, 10 mg/kg orally once daily for 3 weeks, versus untreated control group
Experimental: (§1) Immediately after the FST, mice were sacrificed, brains were rapidly removed, and frozen in liquid nitrogen. Samples were dissected and homogenized in ice-cold buffer supplemented with 0.2 mM DTT, 0.5 mM sodium vanadate, and protease inhibitors. NaCl was then added to a final concentration of 0.45 M, and homogenates were centrifuged at 15,000×g for 30 min. Supernatants were collected and stored at −70° C. Samples were subjected to Western blot analysis for ERK, phosphorylated-ERK (PERK), BDNF, and GAPDH. Supernatant samples obtained as described above were heated at 95° C. for 5min and briefly cooled on ice. After centrifugation, 50 μg aliquots were resolved by 12% SDS-polyacrylamide gel electrophoresis. Proteins were then transferred to nitrocellulose membranes, which were blocked for 2 h with phosphate-buffered saline (PBS) containing Tween-20 (PBST) containing 6% bovine serum albumin. Membranes were incubated overnight at 4° C. with primary antibodies diluted 1:500 with PBST, and washed nine times for 10 min with PBST. For protein detection, blots were incubated with secondary antibodies conjugated peroxidase (1:5000) for 2 h. Finally, protein bands were visualized using an enhanced chemiluminescence kit (GE Healthcare, Piscataway, N.J., USA) according to the manufacturer's instructions.

pERK = test: ERK phosphorylation in brain, Western blot; format: in vivo, mice; conditions: mouse brain after FST, 10 mg/kg orally once daily for 3 weeks, p<0.05
Experimental: as §1

CNCCC(Oc1ccc(C(F)(F)F)cc1)c1ccccc1 (centres unmarked) [fluoxetine, Fluoxetine]
Mean immobility time after the 3-week treatment period (ICR mice; 10 mg/kg orally once daily for 3 weeks, untreated control 199.3±11.8 s, p<0.05): 60.4 ± 14.3 s | Mean baseline immobility time (ICR mice; baseline (0 day), before treatment): 94.2 ± 23.9 s | DA level in brain (DA): significantly higher than in the untreated control group | BDNF level (BDNF): significantly increased BDNF levels | pERK level (pERK): significantly elevated pERK levels
